Experimental data published in ChEMBL document CHEMBL4406913, “INCB050465 (Parsaclisib), a Novel Next-Generation Inhibitor of Phosphoinositide 3-Kinase Delta (PI3Kδ)” (ACS Med Chem Lett, 2019).
Calls of active or inactive are those of the source. The rule behind the calls is not given here.

Key:
[1] = molecular target: T1, Phosphatidylinositol 4,5-bisphosphate 3-kinase catalytic subunit delta isoform (Homo sapiens, UniProt O00329)
T1 sequence (O00329 whole entry): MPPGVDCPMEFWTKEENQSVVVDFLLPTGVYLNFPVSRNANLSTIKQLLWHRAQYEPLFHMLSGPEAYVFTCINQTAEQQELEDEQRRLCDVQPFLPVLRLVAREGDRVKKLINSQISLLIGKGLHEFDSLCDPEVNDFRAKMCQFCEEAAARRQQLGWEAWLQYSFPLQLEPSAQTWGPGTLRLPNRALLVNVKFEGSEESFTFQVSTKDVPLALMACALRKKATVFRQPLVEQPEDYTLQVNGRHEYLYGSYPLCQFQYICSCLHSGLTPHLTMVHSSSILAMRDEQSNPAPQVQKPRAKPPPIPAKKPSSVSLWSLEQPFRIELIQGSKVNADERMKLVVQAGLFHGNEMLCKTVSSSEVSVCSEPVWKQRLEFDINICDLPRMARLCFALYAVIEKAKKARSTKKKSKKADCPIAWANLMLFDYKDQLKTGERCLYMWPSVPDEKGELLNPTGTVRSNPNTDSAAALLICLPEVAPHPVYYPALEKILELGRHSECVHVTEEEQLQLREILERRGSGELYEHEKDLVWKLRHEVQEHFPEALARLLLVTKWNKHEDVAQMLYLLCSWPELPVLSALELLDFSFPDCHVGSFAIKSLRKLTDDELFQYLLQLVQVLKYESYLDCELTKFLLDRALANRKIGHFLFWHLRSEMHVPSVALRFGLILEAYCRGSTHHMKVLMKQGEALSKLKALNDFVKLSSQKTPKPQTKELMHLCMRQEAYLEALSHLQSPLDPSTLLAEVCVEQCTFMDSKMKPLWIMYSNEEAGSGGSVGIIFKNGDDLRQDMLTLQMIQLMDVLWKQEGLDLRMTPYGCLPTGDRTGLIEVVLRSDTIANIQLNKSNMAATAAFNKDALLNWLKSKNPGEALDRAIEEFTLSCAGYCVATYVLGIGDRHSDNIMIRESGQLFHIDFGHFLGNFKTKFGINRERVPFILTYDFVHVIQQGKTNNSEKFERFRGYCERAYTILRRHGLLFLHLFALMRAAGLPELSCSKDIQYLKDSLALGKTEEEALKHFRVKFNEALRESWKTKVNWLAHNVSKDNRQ
Description: (§1) Inhibition of PI3Kdelta (unknown origin) using D-myophosphatidylinositol 4,5-bisphosphate as substrate incubated for 120 mins by [gamma-33P]ATP based SPA assay

[2] = system: Pfeiffer; assay: Cytotoxicity against human Pfeiffer cells assessed as reduction in protein binding adjusted cell viability incubated for 4 days by [3H]-thymidine incorporation based liquid scintillation counter method; format: functional
[3] = Fractional unbound in human plasma; format: ADME, cell-free
[4] = system: Pfeiffer; assay: Cytotoxicity against human Pfeiffer cells assessed as reduction in cell viability incubated for 4 days by [3H]-thymidine incorporation based liquid scintillation counter method; format: functional
[5] = system: SU-DHL-6; assay: Cytotoxicity against human SUDHL6 cells assessed as reduction in cell viability incubated for 4 days by celltiter glo luminescent assay; format: functional, cell-based; conditions: SU-DHL-6, 96 h
[6] = molecular target: Voltage-gated inwardly rectifying potassium channel KCNH2 (Homo sapiens, UniProt Q12809); assay: Inhibition of human ERG channel at 30 uM incubated for 24 hrs in presence of [3H] Dofetilide by filter binding assay based scintillation counting analysis
[7] = Intrinsic clearance in human liver microsomes at 1 uM measured upto 30 mins by LC/MS analysis; format: ADME, Microsome; conditions: read-out: CLH (converted)
[8] = Permeability across apical to basolateral side in human Caco2 cells at 50 uM incubated for 120 mins by LC/MS analysis; format: ADME, cell-based; conditions: Caco-2, read-out: permeability
[9] = molecular target: T2, Phosphatidylinositol 4,5-bisphosphate 3-kinase catalytic subunit delta isoform (Homo sapiens) (UniProt O00329)
T2 sequence (whole entry): T1 sequence (O00329 whole entry)
Description: as §1

[10] = AUC in cynomolgus monkey at 10 mg/kg, po measured for 24 hrs by LC/MS/MS analysis; format: ADME, organism-based, Macaca fascicularis; conditions: in vivo
[11] = Half life in cynomolgus monkey at 10 mg/kg, po measured for 24 hrs by LC/MS/MS analysis; format: ADME, organism-based, Macaca fascicularis; conditions: in vivo
[12] = AUC in rat at 5 mg/kg, po measured for 24 hrs by LC/MS/MS analysis; format: ADME, organism-based; conditions: in vivo
[13] = AUC in rat at 4 mg/kg, po measured for 24 hrs by LC/MS/MS analysis; format: ADME, organism-based; conditions: in vivo
[14] = system: HEK293; assay: Cytotoxicity against human HEK293 cells assessed as reduction in cell viability at 20 uM incubated for 72 hrs by celltiter glo luminescent assay; format: cell-based; conditions: hek293, 72 h
[15] = Half life in cynomolgus monkey at 2 mg/kg, po measured for 24 hrs by LC/MS/MS analysis; format: ADME, organism-based, Macaca fascicularis; conditions: in vivo
[16] = AUC in cynomolgus monkey at 2 mg/kg, po measured for 24 hrs by LC/MS/MS analysis; format: ADME, organism-based, Macaca fascicularis; conditions: in vivo
[17] = Toxicity in Beagle dog; set-up: species or system Canis lupus familiaris; conditions: in vivo
[18] = Toxicity in dog assessed as testicular lesions observed on day 28; set-up: species or system Canis lupus familiaris; conditions: in vivo
[19] = AUC in cynomolgus monkey at 1 mg/kg, po measured for 24 hrs by LC/MS/MS analysis; format: ADME, organism-based, Macaca fascicularis; conditions: in vivo

Chain of Voltage-gated inwardly rectifying potassium channel KCNH2 (Q12809 whole entry): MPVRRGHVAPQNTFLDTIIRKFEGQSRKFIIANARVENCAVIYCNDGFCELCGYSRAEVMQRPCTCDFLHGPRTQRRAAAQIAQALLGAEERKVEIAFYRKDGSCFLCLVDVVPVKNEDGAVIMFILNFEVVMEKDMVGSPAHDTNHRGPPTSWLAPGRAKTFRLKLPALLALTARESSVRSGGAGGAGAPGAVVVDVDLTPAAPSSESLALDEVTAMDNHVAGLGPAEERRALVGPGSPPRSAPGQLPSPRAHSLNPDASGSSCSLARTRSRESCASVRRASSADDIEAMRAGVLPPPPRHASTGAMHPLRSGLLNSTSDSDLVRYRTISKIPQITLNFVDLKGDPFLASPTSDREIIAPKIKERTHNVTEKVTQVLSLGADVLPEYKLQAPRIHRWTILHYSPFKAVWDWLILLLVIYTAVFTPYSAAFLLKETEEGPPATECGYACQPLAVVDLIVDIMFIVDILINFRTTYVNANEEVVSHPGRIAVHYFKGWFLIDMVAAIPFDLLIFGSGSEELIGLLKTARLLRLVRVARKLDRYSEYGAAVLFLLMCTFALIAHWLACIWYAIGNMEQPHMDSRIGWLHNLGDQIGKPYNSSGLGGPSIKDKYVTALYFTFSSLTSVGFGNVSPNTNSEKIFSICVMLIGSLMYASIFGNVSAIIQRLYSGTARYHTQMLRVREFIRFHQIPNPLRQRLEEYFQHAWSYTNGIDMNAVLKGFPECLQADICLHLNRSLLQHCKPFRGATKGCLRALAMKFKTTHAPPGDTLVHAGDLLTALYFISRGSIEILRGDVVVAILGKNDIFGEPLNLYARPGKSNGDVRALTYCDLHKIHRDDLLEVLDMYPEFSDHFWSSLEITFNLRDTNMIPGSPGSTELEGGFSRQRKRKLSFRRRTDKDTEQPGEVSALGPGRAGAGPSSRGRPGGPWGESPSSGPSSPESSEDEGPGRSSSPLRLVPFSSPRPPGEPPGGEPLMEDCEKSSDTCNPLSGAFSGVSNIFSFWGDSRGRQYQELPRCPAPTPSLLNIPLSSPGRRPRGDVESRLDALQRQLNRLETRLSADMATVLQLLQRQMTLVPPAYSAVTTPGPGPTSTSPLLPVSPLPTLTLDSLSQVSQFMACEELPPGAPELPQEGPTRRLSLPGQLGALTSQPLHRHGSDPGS

Row | SMILES | IC50 [1] | fraction unbound [3] | IC50 [2] | IC50 [4] | IC50 [5] | other results
1 | COc1c([C@H](C)n2nc(C)c3c(N)ncnc32)cc(Cl)c(C)c1-c1ccnc(C(=O)N(C)C)c1 | 0.00093 µM | 0.089 | 0.061 µM | 0.0086 µM | 0.0074 µM | –
2 | COc1c([C@H](C)n2nc(C)c3c(N)ncnc32)cc(Cl)c(C)c1C1CNC(=O)C1 (stereo partly drawn) | 0.0024 µM | 0.1 | 0.48 µM | 0.051 µM | 0.013 µM | inhibition (INH) [6]: Not Active; CLint scaled at 1 µM [7]: 11.7 mL/min/kg; Papp A→B at 2 h, 50 µM [8]: 2.8 ×10⁻⁶ cm/s; inhibition [9]: inactive
3 | COc1c(C(C)n2nc(C)c3c(N)ncnc32)cc(Cl)c(C)c1C1CCN(C)CC1 (racemic) | 0.011 µM | 0.19 | 0.053 µM | 0.011 µM | 0.044 µM | –
4 | CCOc1c([C@H](C)n2nc(C)c3c(N)ncnc32)cc(Cl)c(C)c1C1CNC(=O)C1 (stereo partly drawn) | 0.0014 µM | 0.065 | 0.047 µM | 0.0048 µM | 0.0021 µM | CLint scaled at 1 µM [7]: 11.7 mL/min/kg; Papp A→B at 2 h, 50 µM [8]: 1.9 ×10⁻⁶ cm/s; inhibition [9]: inactive
5 | COc1c([C@H](C)Nc2ncnc(N)c2C#N)cc(Cl)c(C)c1-c1cncc(S(C)(=O)=O)c1 | 0.00099 µM | 0.14 | 0.017 µM | 0.0034 µM | 0.0031 µM | inhibition (INH) [6]: Active; AUC at 24 h [13]: 10 µM·h; Papp A→B at 2 h, 50 µM [8]: 7.9 ×10⁻⁶ cm/s; Activity [14]: Toxic
6 | COc1c([C@H](C)Nc2ncnc(N)c2C#N)cc(Cl)c(C)c1-c1ccc(C(=O)N(C)C)cn1 | 0.0018 µM | 0.22 | 0.061 µM | 0.017 µM | 0.021 µM | inhibition (INH) [6]: Not Active; half-life [15]: 12 min; AUC at 24 h [16]: 0.2 µM·h; AUC at 24 h [13]: 7.7 µM·h; Activity [14]: Non-Toxic
7 | COc1c(C(C)n2ncc3c(N)ncnc32)cc(Cl)c(C)c1-c1ccnc(C(=O)N(C)C)c1 (racemic) | 0.12 µM | 0.092 | 4.5 µM | 0.61 µM | 0.84 µM | –
8 | COc1c([C@H](C)n2nc(C)c3c(N)ncnc32)cc(Cl)c(C#N)c1C1CN(C[C@H](C)O)C1 | 0.0019 µM | 0.42 | 0.0036 µM | 0.0015 µM | 0.0024 µM | inhibition (INH) [6]: Active; Activity [18]: Toxic; AUC at 24 h [19]: 4.1 µM·h; AUC at 24 h [12]: 6.8 µM·h
9 | CCOc1c([C@H](C)n2nc(C)c3c(N)ncnc32)cc(Cl)c(C#N)c1C1CNC(=O)C1 (stereo partly drawn) | < 0.001 µM | 0.23 | 0.0041 µM | 0.0017 µM | 0.00047 µM | CLint scaled at 1 µM [7]: 11.7 mL/min/kg; Papp A→B at 2 h, 50 µM [8]: 0.3 ×10⁻⁶ cm/s; inhibition [9]: inactive
10 | COc1c([C@H](C)Nc2ncnc3[nH]cnc23)cc(Cl)c(C)c1-c1cncc(S(C)(=O)=O)c1 | 0.0017 µM | 0.12 | 0.04 µM | 0.0095 µM | 0.014 µM | Papp A→B at 2 h, 50 µM [8]: 0.5 ×10⁻⁶ cm/s; AUC at 24 h [12]: 3 µM·h
11 | COc1c([C@H](C)Nc2ncnc3[nH]cnc23)cc(Cl)c(C)c1-c1ccc(S(C)(=O)=O)cc1 | – | 0.013 | 3.1 µM | 0.13 µM | 0.17 µM | –

Continued, in another order:

Row | IC50 [1] | fraction unbound [3] | SMILES | IC50 [2] | IC50 [4] | IC50 [5] | other results
12 | 0.0084 µM | 0.014 | C[C@H](Nc1ncnc2[nH]cnc12)c1cc(Cl)c2cccnc2c1-c1cccc(F)c1 | 1 µM | 0.05 µM | 0.14 µM | –
13 | – | 0.17 | Cc1csc2nc([C@H](C)Nc3ncnc4[nH]cnc34)c(-c3cccc(F)c3)c(=O)n12 [DEZAPELISIB] | 0.066 µM | 0.014 µM | 0.018 µM | AUC at 24 h [10]: 4.9 µM·h; half-life [11]: 78 min; AUC at 24 h [12]: 4.4 µM·h
14 | – | 0.0064 | Cc1c(Cl)cc(C(C)Nc2ncnc3[nH]cnc23)c(-c2cccc(F)c2)c1C#N (racemic) | – | 0.66 µM | 1.3 µM | –
15 | – | 0.059 | C[C@H](Nc1ncnc2[nH]cnc12)c1cc(Cl)c2ccnnc2c1-c1cccc(F)c1 | 0.27 µM | 0.026 µM | 0.073 µM | Activity [17]: Toxic; AUC at 24 h [12]: 13 µM·h
16 | 0.0053 µM | – | Cc1c(Cl)cc(C(C)Nc2ncnc3[nH]cnc23)c(-c2cccc(F)c2)c1-c1cnn(C)c1 (racemic) | – | 0.0087 µM | 0.06 µM | –
17 | 0.0028 µM | 0.029 | COc1c([C@H](C)Nc2ncnc3[nH]cnc23)cc(Cl)c(C)c1-c1cnn(C)c1 | 0.95 µM | 0.12 µM | 0.1 µM | –
18 | 0.43 µM | 0.1 | CC(Nc1ncnc2[nH]cnc12)c1ccc2cccnc2c1-c1cccc(F)c1 (racemic) | 3.2 µM | 0.49 µM | 1.8 µM | –
